# Assay results as given in patent publication US11180510B2, “Xanthine derivatives and uses thereof as inhibitors of bromodomains of BET proteins” (Centre national de la recherche scientifique, priority 2017, dated 2021).
# Counter-ions that a name gives are not always drawn.
# Target: BRD4(BD1) (Homo sapiens, UniProt O60885)
# Test: HTRF assay, BRD4(BD1)/histone peptide interaction
# Type: binding
# Set-up: made in house
# Details: HTRF; triplicates; NA = IC50 > maximal concentration of compound used
# Procedure: HTRF assays were performed in white 384 Well Small Volume™ HiBase Polystyrene Microplates (Greiner) with a total working volume of 20 μL. Compounds were dispensed, with 100 nL per well (0.5% final DMSO), from a concentration stock of 10 mM in 100% DMSO and with serial DMSO dilutions, using an Echo® 550 robot from the Access Labcyte platform (Labcyte) and based on the transfer of liquid by acoustic wave. Then, 19.5 μL of buffer is added, using a Multidrop Combi (Thermo Fisher Scientific). […] All HTRF reagents (donor and acceptor) were purchased from CisBio Bioassays and reconstituted according to the supplier protocols. The peptide was purchased from Genic Bio Synthetic. The BRD4(1) protein was produced and purified in the laboratory.
# Percentage of inhibition was calculated using the following equation: % inhibition=[(compound signal)−(min signal)]/[(max signal)−(min signal)]*100, where ‘max signal’ is the signal ratio with the compound vehicle alone (DMSO) and ‘min signal’ the signal ratio without peptide.
# Selectivity profiles of bromodomain inhibitors were performed as described in HTRF screen section. […] HTRF detection reagents (EPIgeneous™ Binding Domain kits) were purchased from Cisbio Bioassays and used according to supplier's protocol. GST tagged bromodomain proteins were purchased from BPS Bioscience and histone peptide from Genic Bio Synthetic.
row,SMILES,IC50 [µM]
1,"COC(=O)C1CCC(CNS(=O)(=O)c2ccc3c(c2)CCCC(=O)N3)CC1 (stereo not drawn) [Compound 1c, Methyl 4-((2-oxo-2,3,4,5-tetrahydro-1H-benzo[b]azepine-7-sulfonamido)methyl)cyclohexanecarboxylate]",53
2,O=C1CCCc2cc(S(=O)(=O)NCC3CCC(C(=O)NCc4cccs4)CC3)ccc2N1 (stereo not drawn) [Compound 5a],> 50
3,O=C1CCCc2cc(S(=O)(=O)NCC3CCC(C(=O)NCc4ccccn4)CC3)ccc2N1 (stereo not drawn) [Compound 6a],29
4,O=C1CCCc2cc(S(=O)(=O)NCC3CCC(C(=O)NCc4ccncc4)CC3)ccc2N1 (stereo not drawn) [Compound 6c],30
5,O=C1CCCc2cc(S(=O)(=O)NCC3CCC(C(=O)NCc4cccc(O)c4)CC3)ccc2N1 (stereo not drawn) [Compound 7c],23
6,Cc1noc(C)c1CNC(=O)C1CCC(CNS(=O)(=O)c2ccc3c(c2)CCCC(=O)N3)CC1 (stereo not drawn) [Compound 8a],22
7,CS(=O)(=O)NCC1CCC(C(=O)NCCc2cccs2)CC1 (stereo not drawn) [Compound 8c],18
8,O=C1CCCc2cc(S(=O)(=O)N3CCC(C(=O)NCc4cccs4)CC3)ccc2N1 [Compound 11b],> 50
9,O=C1CCCc2cc(S(=O)(=O)N3CCC(C(=O)NCCc4cccs4)CC3)ccc2N1 [Compound 11c],> 50
10,O=C1CCCc2cc(S(=O)(=O)NCc3ccc(C(=O)NCc4ccccn4)cc3)ccc2N1 [Compound 14a],> 25
11,O=C1CCCc2cc(S(=O)(=O)NCc3ccc(C(=O)NCc4cccnc4)cc3)ccc2N1 [Compound 14b],> 25
12,O=C1CCCc2cc(S(=O)(=O)NCc3ccc(C(=O)NCc4ccncc4)cc3)ccc2N1 [Compound 14c],> 25
13,O=C1CCCc2cc(S(=O)(=O)NCc3ccc(C(=O)NCc4cccc(O)c4)cc3)ccc2N1 [Compound 15b],46
14,"CCn1cnc2c1c(=O)[nH]c(=O)n2Cc1ccc(CN)cc1 [Compound 20a, 3-(4-(aminomethyl)benzyl)-7-ethyl-1H-purine-2,6(3H,7H)-dione trifluoroacetic salt]",27
15,CCn1cnc2c1c(=O)[nH]c(=O)n2Cc1ccc(CNS(C)(=O)=O)cc1 [Compound 20b],4.3
16,CCCS(=O)(=O)NCc1ccc(Cn2c(=O)[nH]c(=O)c3c2ncn3CC)cc1 [Compound 20c],3.6
17,CCn1cnc2c1c(=O)[nH]c(=O)n2Cc1ccc(CNS(=O)(=O)CC(C)C)cc1 [Compound 21a],2.9
18,CCn1cnc2c1c(=O)[nH]c(=O)n2Cc1ccc(CNS(=O)(=O)CCOC)cc1 [Compound 21b],5.2
19,CCn1cnc2c1c(=O)[nH]c(=O)n2Cc1ccc(CNS(=O)(=O)CC2CCCC2)cc1 [Compound 21c],1.4
20,CCn1cnc2c1c(=O)[nH]c(=O)n2Cc1ccc(CNS(=O)(=O)CCN2CCOCC2)cc1 [Compound 22a],4.5
21,CCn1cnc2c1c(=O)[nH]c(=O)n2Cc1ccc(CNS(=O)(=O)CCCN2CCOCC2)cc1 [Compound 22b],7.5
22,CCn1cnc2c1c(=O)[nH]c(=O)n2Cc1ccc(CNS(=O)(=O)CCc2ccccc2)cc1 [Compound 22c],1.4

# Next, values leading:
row,IC50 [µM],SMILES
1,3.5,CCn1cnc2c1c(=O)[nH]c(=O)n2Cc1ccc(CNS(=O)(=O)c2cn(C)cn2)cc1 [Compound 23a]
2,1.7,CCn1cnc2c1c(=O)[nH]c(=O)n2Cc1ccc(CNS(=O)(=O)c2cn(C)c(C)n2)cc1 [Compound 23b]
3,1.3,CCc1nc(S(=O)(=O)NCc2ccc(Cn3c(=O)[nH]c(=O)c4c3ncn4CC)cc2)cn1C [Compound 23c]
4,2.7,CCn1cnc2c1c(=O)[nH]c(=O)n2Cc1ccc(CNS(=O)(=O)c2ccn(C(C)C)n2)cc1 [Compound 24a]
5,1.7,CCn1cnc2c1c(=O)[nH]c(=O)n2Cc1ccc(CNS(=O)(=O)c2cc(C)ns2)cc1 [Compound 24c]
6,2.2,CCn1cnc2c1c(=O)[nH]c(=O)n2Cc1ccc(CNS(=O)(=O)c2ccc3oncc3c2)cc1 [Compound 26a]
7,0.769,CCn1cnc2c1c(=O)[nH]c(=O)n2Cc1ccc(CNS(=O)(=O)c2ccc3c(c2)n(C)c(=O)n3C)cc1 [Compound 26b]
8,0.817,CCn1cnc2c1c(=O)[nH]c(=O)n2Cc1ccc(CNS(=O)(=O)c2ccc3c(c2)CCN3C(C)=O)cc1 [Compound 26c]
9,1.3,CCn1cnc2c1c(=O)[nH]c(=O)n2Cc1ccc(CNS(=O)(=O)c2cc(-c3ccno3)ccc2C)cc1 [Compound 27a]
10,1.3,CCn1cnc2c1c(=O)[nH]c(=O)n2Cc1ccc(CNS(=O)(=O)c2ccc([N+](=O)[O-])cc2)cc1 [Compound 28a]
11,0.729,CCn1cnc2c1c(=O)[nH]c(=O)n2Cc1ccc(CNS(=O)(=O)c2ccc(N)cc2)cc1 [Compound 28b]
12,0.687,CCn1cnc2c1c(=O)[nH]c(=O)n2Cc1ccc(CNS(=O)(=O)c2ccc(C)cc2)cc1 [Compound 28c]
13,1.6,CCn1cnc2c1c(=O)[nH]c(=O)n2Cc1ccc(CNS(=O)(=O)c2ccccc2)cc1 [Compound 29a]
14,0.6,CCn1cnc2c1c(=O)[nH]c(=O)n2Cc1ccc(CNS(=O)(=O)c2ccc(-c3coc(C)n3)cc2)cc1 [Compound 30a]
15,0.687,CCn1cnc2c1c(=O)[nH]c(=O)n2Cc1ccc(CNS(=O)(=O)c2ccc(OC)cc2)cc1 [Compound 30b]
16,0.723,CCn1cnc2c1c(=O)[nH]c(=O)n2Cc1ccc(CNS(=O)(=O)c2cccc(NC(C)=O)c2)cc1 [Compound 31b]
17,4.7,CCn1cnc2c1c(=O)[nH]c(=O)n2Cc1ccc(CNC(=O)CCC2CC2)cc1 [Compound 33b]
18,4.5,"CCCn1cc(C(=O)NCc2ccc(Cn3c(=O)[nH]c(=O)c4c3ncn4CC)cc2)cn1 [Compound 33c, N-(4-((7-ethyl-2,6-dioxo-1H-purin-3(2H,6H,7H)-yl)methyl)benzyl)-1-propyl-1H-pyrazole-4-carboxamide]"
19,4.3,CCn1cnc2c1c(=O)[nH]c(=O)n2Cc1ccc(CNC(=O)C2CCN(C)C2)cc1 (stereo not drawn) [Compound 34a]
20,2.8,CCCC(=O)N1CCC(C(=O)NCc2ccc(Cn3c(=O)[nH]c(=O)c4c3ncn4CC)cc2)CC1 [Compound 34b]
21,0.749,CCn1cnc2c1c(=O)[nH]c(=O)n2Cc1ccc(CNC(=O)c2ccc(N3CCc4ccccc4C3)cc2)cc1 [Compound 34c]

row,IC50 [µM],SMILES
1,2.8,CCn1cnc2c1c(=O)[nH]c(=O)n2Cc1ccc(CNC(=O)C2CCCC(O)C2)cc1 (stereo not drawn) [Compound 35a]
2,7,CCn1cnc2c1c(=O)[nH]c(=O)n2Cc1ccc(CNC(=O)C2CCC(CO)CC2)cc1 (stereo not drawn) [Compound 35b]
3,1.8,CCn1cnc2c1c(=O)[nH]c(=O)n2Cc1ccc(CNC(=O)[C@H](O)c2ccc(C)cc2)cc1 [Compound 35c]
4,2.2,CCn1cnc2c1c(=O)[nH]c(=O)n2Cc1ccc(CNC(=O)CCC(C)C)cc1 [Compound 36a]
5,2,CCn1cnc2c1c(=O)[nH]c(=O)n2Cc1ccc(CNC(=O)c2ccc(Oc3ccccc3)cc2)cc1 [Compound 37a]
6,4.9,CCn1cnc2c1c(=O)[nH]c(=O)n2Cc1ccc(CNC(=O)C(NC(=O)OC(C)(C)C)c2ccc(C)cc2)cc1 (stereo not drawn) [Compound 37b]
7,1.7,CCn1cnc2c1c(=O)[nH]c(=O)n2Cc1ccc(CNC(=O)[C@@H]2C[C@@H](c3ccccc3)CN2C(=O)OC(C)(C)C)cc1 [Compound 38a]
8,8.1,CCn1cnc2c1c(=O)[nH]c(=O)n2Cc1ccc(CNC(=O)[C@H]2CC[C@H](CNC(=O)OC(C)(C)C)CC2)cc1 [Compound 38b]
9,5.5,CCn1cnc2c1c(=O)[nH]c(=O)n2Cc1ccc(CNC(=O)[C@H](CC2CC2)NC(=O)OC(C)(C)C)cc1 [Compound 38c]
10,6.8,CCn1cnc2c1c(=O)[nH]c(=O)n2Cc1ccc(CNC(=O)[C@@H]2CCCN(C(=O)OC(C)(C)C)C2)cc1 [Compound 39a]
11,2.3,CCC[C@H](NC(=O)OC(C)(C)C)C(=O)NCc1ccc(Cn2c(=O)[nH]c(=O)c3c2ncn3CC)cc1 [Compound 39b]
12,1.5,CCn1cnc2c1c(=O)[nH]c(=O)n2Cc1ccc(CNC(=O)[C@@H]2CCC[C@H](NC(=O)OC(C)(C)C)C2)cc1 [Compound 39c]
13,18,CCn1cnc2c1c(=O)[nH]c(=O)n2Cc1ccc(CNC(=O)C(N)c2ccc(C)cc2)cc1 (stereo not drawn) [Compound 40a]
14,32,CCC[C@@H](N)C(=O)NCc1ccc(Cn2c(=O)[nH]c(=O)c3c2ncn3CC)cc1 [Compound 40b]
15,13,CCn1cnc2c1c(=O)[nH]c(=O)n2Cc1ccc(CNC(=O)[C@@H]2C[C@@H](c3ccccc3)CN2)cc1 [Compound 40c]
16,> 50,CCn1cnc2c1c(=O)[nH]c(=O)n2Cc1ccc(CNC(=O)[C@H]2CC[C@H](CN)CC2)cc1 [Compound 41a]
17,> 50,CCn1cnc2c1c(=O)[nH]c(=O)n2Cc1ccc(CNC(=O)[C@@H](N)CC2CC2)cc1 [Compound 41b]
18,> 50,CCn1cnc2c1c(=O)[nH]c(=O)n2Cc1ccc(CNC(=O)[C@@H]2CCCNC2)cc1 [Compound 41c]
19,> 50,CCC[C@H](N)C(=O)NCc1ccc(Cn2c(=O)[nH]c(=O)c3c2ncn3CC)cc1 [Compound 42a]
20,32,CCn1cnc2c1c(=O)[nH]c(=O)n2Cc1ccc(CNC(=O)C2CCCC(N)C2)cc1 (stereo not drawn) [Compound 42b]
